From patent US20220362275A1, “Method and Compositions for Treating Glioblastoma” (PHOENIX BIOTECHNOLOGY, INC., priority 2019, published 2022)
Entries after “also recorded” stand apart in the source; their conditions may differ. Read-outs that look alike come from different tables or passages of the source.

What was measured:
[1] = cited from earlier work
GBM [2] = settings: cited from earlier work
GBM9 stem cell line = test: High throughput growth/viability assay (Cell Titer Glo-3D), GBM9; type: cell-based; settings: FIG. 17E
Method: (§1) A total of 500 GBM9 cells or 1,000 GS28 cells per well suspended in 50 ul of media are seeded into Greiner Black 384-well plates (Cat #781091) using Multidrop Combi liquid dispenser (ThermoFisher).
(§2) The cells are allowed to recover and form a monolayer overnight at 37 C in a humidified chamber with 5% CO2.
(§3) After recovery, 50 nl of each drug are transferred into well using an Echo 550 acoustic dispensing platform (Labcyte).
(§4) In the combination screen, two or three drugs are tested with a fixed volume of DMSO ([…]) and two biological replicates. Each assay plate contains a fixed concentration of drug in addition to a negative control (0.1% DMSO), a positive control (10 uM Doxorubicin), and an 8-point dose response curve of the positive controls. Each well image is taken using the ImageXpress Micro Conforcal High Content Imaging System (MolecularDevices) everyday four times.
(§5) After 72 hr incubation in the presence of drug, plates are aspirated for left 25 ul and then, 25 ul of Cell Titer Glo-3D (Promega) are added and incubated for 20 minutes. Assay plates are read on the Synergy Neo2 Hybrid Multi-Mode Microplate Reader (BioTek).

GS28 stem cell line = test: High throughput growth/viability assay (Cell Titer Glo-3D), GS28; type: cell-based; settings: FIG. 17D
Method: as §1, §2, §3, §4, §5

[3] = Oral bioavailability anticipated from human clinical data; settings: in vivo, based on human clinical data, read-out: part of an administered dose orally bioavailable
GBM [4] = settings: addition to standard treatment; cited from earlier work
[5] = test system: caspase 3, 8 and 9 in human GBM U87MG, U251 and T98 cells; test: Caspase 3, 8 and 9 enzymatic activity (chromogenic substrates); type: cell-based; settings: pan-caspase inhibitor added
Method: For cell cycle analysis, cells (2.5×10^6) grown in 100-mm dishes were treated with PBI-05204 (0.5-2.5 μg/ml) for 24 hr. Cells were subjected to trypsinization and centrifugation, and the pellets were suspended and washed in 1× phosphate-buffered saline solution (PBS) and were fixed overnight in 70% ethanol at 4° C. The cells were then washed with 1×PBS and were suspended in PBTB staining solution containing PBS, 0.5% bovine serum albumin (BSA), 0.005% Tween-20, propidium iodide (10 μg/ml) and DNase-free RNase (1 μg/ml). Cells were incubated in the dark for 30 min at 37° C. before fluorescence-activated cell-sorting (FACS) analysis using a BD FACS Caliber flow cytometer (BD Biosciences, San Jose, Calif.). The percentage of cells in each phase of the cell cycle was estimated from the DNA histogram content. Apoptosis was evaluated by APOSTRAND™ ELISA apoptosis detection kit (3V Chimica S.r.l. Rome, Italy) and by caspase-specific chromogenic substrates at 450 nm in an ELISA plate reader such as Ac-DEVD-pNA (caspase-3), Ac-IETD-pNA (caspase 8) and Ac-LEHD-pNA (caspase 9) purchased from Kaneka Eurogentec SA (Seraing, Belgium).

[6] = all concentrations ranging from 1×10^−4.5 to 1×10^−7 M

Cn1nnc2c(C(N)=O)ncn2c1=O [TMZ, temozolomide]
entry into the cerebrospinal fluid ([1]; in vivo): readily enters
pharmacokinetics ([1]; in vivo): linear
bioavailability ([1]; oral): excellent
grade ≥3 toxicity (GBM [2]; ddTMZ arm): 53%
grade ≥3 toxicity (GBM [2]; sdTMZ arm): 34%

C[C@H]1[C@H](C)CC[C@]2(C(=O)O)CC[C@]3(C)C(=CC[C@@H]4[C@@]5(C)CC[C@H](O)C(C)(C)[C@@H]5CC[C@]43C)[C@H]12 [Ursolic acid, ursolic acid]
activity at concentrations below about 10 microM (GBM9 stem cell line): little to no activity
activity at concentrations below about 5.6 microM (GS28 stem cell line): little to no activity

CO[C@H]1C[C@H](O[C@H]2CC[C@@]3(C)[C@H](CC[C@@H]4[C@@H]3CC[C@]3(C)[C@@H](C5=CC(=O)OC5)[C@@H](OC(C)=O)C[C@]43O)C2)O[C@@H](C)[C@@H]1O [oleandrin]
bioavailability [3]: 50 to 75%

CC1(C)CC[C@]2(C(=O)O)CC[C@]3(C)C(=CC[C@@H]4[C@@]5(C)CC[C@H](O)C(C)(C)[C@@H]5CC[C@]43C)[C@@H]2C1 [oleanolic acid]
activity (inhibition of growth of GBM stem cells) (GBM9 stem cell line; [6]): very poor activity; also recorded: little to no activity
activity (inhibition of growth of GBM stem cells) (GS28 stem cell line; [6]): very poor activity

bevacizumab
overall survival (OS) (GBM [4]): no increase
progression-free survival (PFS) (GBM [4]): improved

z-VAD-fmk
PBI-05204 induced caspase 3 activity [5]: largely inhibited
